Test system: SEM cells
Test: cell viability relative to DMSO control; higher = less cytotoxic
Conditions: 48 h
Procedure, shortened: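 Library compounds in DMSO were pin-dosed into 1536-well plates (5 μl) holding NOMO1 or SEM (500 cells/well) or P12-Ichikawa (1000 cells/well) leukemia cells, across an 11-point threefold series of 47 μM to 0.79 nM. Each cell line had been adapted for at least four passages in each medium. CellTiter-Glo One luminescence was read after 48 h at 37°C. Viability is the per-plate percentage relative to DMSO wells, with cell-free wells as background.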

[1] = HPLM + 10% dialyzed FBS, 0.000781 µM
[2] = HPLM + 10% dialyzed FBS, 0.00234 µM
[3] = HPLM + 10% dialyzed FBS, 0.00702 µM
[4] = HPLM + 10% dialyzed FBS, 0.0211 µM
[5] = HPLM + 10% dialyzed FBS, 0.0632 µM
[6] = HPLM + 10% dialyzed FBS, 0.19 µM
[7] = HPLM + 10% dialyzed FBS, 0.569 µM
[8] = HPLM + 10% dialyzed FBS, 1.71 µM
[9] = HPLM + 10% dialyzed FBS, 5.12 µM
[10] = HPLM + 10% dialyzed FBS, 15.4 µM
[11] = HPLM + 10% dialyzed FBS, 46.1 µM
[12] = RPMI 5 mM glucose + 10% FBS, 0.000781 µM
[13] = RPMI 5 mM glucose + 10% FBS, 0.00234 µM
[14] = RPMI 5 mM glucose + 10% FBS, 0.00702 µM
[15] = RPMI 5 mM glucose + 10% FBS, 0.0211 µM
[16] = RPMI 5 mM glucose + 10% FBS, 0.0632 µM
[17] = RPMI 5 mM glucose + 10% FBS, 0.19 µM
[18] = RPMI 5 mM glucose + 10% FBS, 0.569 µM
[19] = RPMI 5 mM glucose + 10% FBS, 1.71 µM
[20] = RPMI 5 mM glucose + 10% FBS, 5.12 µM
[21] = RPMI 5 mM glucose + 10% FBS, 15.4 µM
[22] = RPMI 5 mM glucose + 10% FBS, 46.1 µM
[23] = RPMI 5 mM glucose + 10% dialyzed FBS, 0.000781 µM
[24] = RPMI 5 mM glucose + 10% dialyzed FBS, 0.00234 µM
[25] = RPMI 5 mM glucose + 10% dialyzed FBS, 0.00702 µM
[26] = RPMI 5 mM glucose + 10% dialyzed FBS, 0.0211 µM
[27] = RPMI 5 mM glucose + 10% dialyzed FBS, 0.0632 µM
[28] = RPMI 5 mM glucose + 10% dialyzed FBS, 0.19 µM
[29] = RPMI 5 mM glucose + 10% dialyzed FBS, 0.569 µM
[30] = RPMI 5 mM glucose + 10% dialyzed FBS, 1.71 µM
[31] = RPMI 5 mM glucose + 10% dialyzed FBS, 5.12 µM
[32] = RPMI 5 mM glucose + 10% dialyzed FBS, 15.4 µM
[33] = RPMI 5 mM glucose + 10% dialyzed FBS, 46.1 µM

COC(=O)Nc1nc2ccc([S+]([O-])c3ccccc3)cc2[nH]1 (stereo unspecified)
cell viability [1]: 77.9%
cell viability [2]: 97.3%
cell viability [3]: 96.5%
cell viability [4]: 100%
cell viability [5]: 99.5%
cell viability [6]: 94.5%
cell viability [7]: 87.9%
cell viability [8]: 94.4%
cell viability [9]: 84%
cell viability [10]: 59.3%
cell viability [11]: 57.7%
cell viability [12]: 113%
cell viability [13]: 114%
cell viability [14]: 109%
cell viability [15]: 104%
cell viability [16]: 116%
cell viability [17]: 111%
cell viability [18]: 107%
cell viability [19]: 121%
cell viability [20]: 89.6%
cell viability [21]: 67.7%
cell viability [22]: 63%
cell viability [23]: 106%
cell viability [24]: 112%
cell viability [25]: 113%
cell viability [26]: 111%
cell viability [27]: 124%
cell viability [28]: 122%
cell viability [29]: 105%
cell viability [30]: 122%
cell viability [31]: 102%
cell viability [32]: 59.6%
cell viability [33]: 69.4%

O=C(NCC1CCOCC1)c1cnc(Nc2ccc(Cl)cc2Cl)nc1C(F)(F)F
cell viability [1]: 89.6%
cell viability [2]: 98.1%
cell viability [3]: 99%
cell viability [4]: 67.7%
cell viability [5]: 108%
cell viability [6]: 103%
cell viability [7]: 106%
cell viability [8]: 102%
cell viability [9]: 99.5%
cell viability [10]: 114%
cell viability [11]: 117%
cell viability [12]: 95.9%
cell viability [13]: 103%
cell viability [14]: 108%
cell viability [15]: 61.9%
cell viability [16]: 99.1%
cell viability [17]: 100%
cell viability [18]: 99.7%
cell viability [19]: 103%
cell viability [20]: 99.1%
cell viability [21]: 105%
cell viability [22]: 98.5%
cell viability [23]: 94.2%
cell viability [24]: 97.8%
cell viability [25]: 108%
cell viability [26]: 67.9%
cell viability [27]: 121%
cell viability [28]: 119%
cell viability [29]: 113%
cell viability [30]: 112%
cell viability [31]: 91.7%
cell viability [32]: 123%
cell viability [33]: 101%

COC(=O)[C@H](c1ccccc1Cl)N1CCc2sccc2C1
cell viability [1]: 75.5%
cell viability [2]: 89.5%
cell viability [3]: 105%
cell viability [4]: 110%
cell viability [5]: 96.3%
cell viability [6]: 111%
cell viability [7]: 106%
cell viability [8]: 120%
cell viability [9]: 109%
cell viability [10]: 121%
cell viability [11]: 111%
cell viability [12]: 87.5%
cell viability [13]: 80.4%
cell viability [14]: 97.2%
cell viability [15]: 98.9%
cell viability [16]: 93.3%
cell viability [17]: 102%
cell viability [18]: 106%
cell viability [19]: 103%
cell viability [20]: 107%
cell viability [21]: 107%
cell viability [22]: 108%
cell viability [23]: 84.1%
cell viability [24]: 84.1%
cell viability [25]: 86.5%
cell viability [26]: 108%
cell viability [27]: 110%
cell viability [28]: 91.6%
cell viability [29]: 95.3%
cell viability [30]: 135%
cell viability [31]: 116%
cell viability [32]: 122%
cell viability [33]: 99.5%

COc1ccc([S+](=O)([O-])Nc2cccnc2Nc2ccc(O)cc2)cc1
cell viability [1]: 124%
cell viability [2]: 127%
cell viability [3]: 114%
cell viability [4]: 116%
cell viability [5]: 127%
cell viability [6]: 115%
cell viability [7]: 123%
cell viability [8]: 96.1%
cell viability [9]: 20.9%
cell viability [10]: 25.5%
cell viability [11]: 21.6%
cell viability [12]: 76.2%
cell viability [13]: 82.1%
cell viability [14]: 65.8%
cell viability [15]: 86.4%
cell viability [16]: 77.6%
cell viability [17]: 82.6%
cell viability [18]: 77.1%
cell viability [19]: 79.1%
cell viability [20]: 36.2%
cell viability [21]: 17.5%
cell viability [22]: 13.5%
cell viability [23]: 114%
cell viability [24]: 109%
cell viability [25]: 109%
cell viability [26]: 105%
cell viability [27]: 102%
cell viability [28]: 124%
cell viability [29]: 113%
cell viability [30]: 96.5%
cell viability [31]: 47.5%
cell viability [32]: 23.4%
cell viability [33]: 20.2%

C[C@@H](N)C1CC[C@@H](CC1)C(=O)NC2=CC=NC=C2 (stereo partly specified)
cell viability [1]: 91.8%
cell viability [2]: 117%
cell viability [3]: 107%
cell viability [4]: 108%
cell viability [5]: 103%
cell viability [6]: 106%
cell viability [7]: 129%
cell viability [8]: 129%
cell viability [9]: 119%
cell viability [10]: 122%
cell viability [11]: 120%
cell viability [12]: 94%
cell viability [13]: 99.3%
cell viability [14]: 99.8%
cell viability [15]: 90.3%
cell viability [16]: 103%
cell viability [17]: 108%
cell viability [18]: 112%
cell viability [19]: 115%
cell viability [20]: 104%
cell viability [21]: 109%
cell viability [22]: 113%
cell viability [23]: 93.7%
cell viability [24]: 107%
cell viability [25]: 111%
cell viability [26]: 121%
cell viability [27]: 117%
cell viability [28]: 114%
cell viability [29]: 131%
cell viability [30]: 120%
cell viability [31]: 114%
cell viability [32]: 116%
cell viability [33]: 114%

N=C(N)NC(=N)N1CCOCC1
cell viability [1]: 97.7%
cell viability [2]: 97.2%
cell viability [3]: 112%
cell viability [4]: 98%
cell viability [5]: 99.1%
cell viability [6]: 105%
cell viability [7]: 109%
cell viability [8]: 103%
cell viability [9]: 86.4%
cell viability [10]: 98.9%
cell viability [11]: 112%
cell viability [12]: 94%
cell viability [13]: 94.5%
cell viability [14]: 99.7%
cell viability [15]: 96.2%
cell viability [16]: 105%
cell viability [17]: 104%
cell viability [18]: 113%
cell viability [19]: 93.4%
cell viability [20]: 71.2%
cell viability [21]: 100%
cell viability [22]: 106%
cell viability [23]: 104%
cell viability [24]: 114%
cell viability [25]: 107%
cell viability [26]: 104%
cell viability [27]: 106%
cell viability [28]: 100%
cell viability [29]: 111%
cell viability [30]: 93.6%
cell viability [31]: 114%
cell viability [32]: 92.3%
cell viability [33]: 110%

COc1cc(Cl)cn2c(-c3cccc(NC4CNC4)n3)cnc12
cell viability [1]: 114%
cell viability [2]: 117%
cell viability [3]: 131%
cell viability [4]: 121%
cell viability [5]: 133%
cell viability [6]: 116%
cell viability [7]: 125%
cell viability [8]: 90.8%
cell viability [9]: 128%
cell viability [10]: 105%
cell viability [11]: 96.8%

Nc1nc(NCCNc2ncc(-n3ccnc3)c(-c3ccc(Cl)cc3Cl)n2)ccc1[N+](=O)[O-]
cell viability [1]: 120%
cell viability [2]: 134%
cell viability [3]: 112%
cell viability [4]: 135%
cell viability [5]: 123%
cell viability [6]: 132%
cell viability [7]: 132%
cell viability [8]: 99.6%
cell viability [9]: 104%
cell viability [10]: 121%
cell viability [11]: 107%
cell viability [23]: 135%
cell viability [24]: 124%
cell viability [25]: 119%
cell viability [26]: 129%
cell viability [27]: 138%
cell viability [28]: 123%
cell viability [29]: 128%
cell viability [30]: 116%
cell viability [31]: 93.4%
cell viability [32]: 116%
cell viability [33]: 103%

Reference: the supplement of paper PMC11451515
